In patent US12371748B2, “Genetic markers for predicting responsiveness to therapy with HDL-raising or HDL mimicking agent” (Hoffmann-La Roche Inc., priority 2014, dated 2025):

Tested on: patients with evidence of coronary artery disease
Test: dal-PLAQUE-2: change in carotid intima-media thickness (B-mode ultrasound) by ADCY9 genotype
Assay type: in vivo, human
Source text: The dal-PLAQUE-2 study (Tardif J C et al, Circulation Cardiovascular imaging 2011; 4:319-33) was a phase 3b multicenter, double-blind, randomized, placebo-controlled, parallel group trial designed to evaluate the effect of dalcetrapib on atherosclerotic disease progression in patients with evidence of coronary artery disease and carotid intima media thickness of at least 0.65 mm in the far wall of the common carotid arteries, as assessed by B-mode ultrasonography. A total of 931 patients were randomized to receive dalcetrapib 600 mg daily or matching placebo with intended treatment duration of 24 months. However, the trial was terminated prematurely concurrent with the termination of dal OUTCOMES (the latter due to futility). Patients continued study medication until they returned for follow-up carotid imaging at 12 months. Carotid B-mode ultrasound recordings at baseline, month 6, and month 12 were analyzed centrally at the core laboratory of the Montreal Heart Institute. Intima-media thickness (IMT) was analyzed on the far wall of the common carotid arteries. A segment of 10 mm in length of the common carotid artery was analyzed on serial examinations using an automated edge detection software (Carotid Analyzer, Medical Imaging Applications, Coralville, Iowa). Among the 411 participants in the dal-PLAQUE-2 trial who consented to the genetic study, 386 had imaging measures at baseline, 6 months and 12 months (194 and 192 in the dalcetrapib and placebo arms respectively). DNA was extracted from whole blood. The research protocols were approved by the relevant institutional review boards or ethics committees and all human participants gave written informed consent.
All acquired carotid ultrasound recordings were analyzed at the core laboratory of the Montreal Heart Institute by experienced technicians supervised by a physician. Images were required to meet quality and inclusion and exclusion criteria for eligibility prior to random assignment to study treatment. The methods for carotid intima-media thickness analysis included side-by-side viewing of baseline and follow-up studies.
Carotid arterial wall segments were assessed in a longitudinal view, perpendicular to the ultrasound beam, with a horizontal display of the arterial image in order to view the interfaces between blood and vascular structures on the longest possible segment. The localization of the end of the common carotid artery was used as the landmark in repositioning and analyzing comparative length of segments in baseline and follow-up studies. Intima-media thickness was analyzed on the far wall of the right and left common carotid arteries, to reduce variability of measurements. The average of the mean intima-media thickness values of the right and left common carotid arteries was used. A matched segment of 10 mm in length of the common carotid artery was analyzed on serial examinations (baseline, 6 months and 12 months), starting 5 mm proximal to the carotid bifurcation. The edge detection software Carotid Analyzer (Medical Imaging Applications LLC, Coralville, Iowa) was used to analyze intima-media thickness using the automated option. Two sets of carotid artery borders were identified: First, the media-adventitia borders were determined and verified by the reader. When required, their locations were semi-automatically modified to the correct location. When these borders were approved, the lumen-intima boundaries were automatically detected using the media-adventitia borders for guidance. Frames from looped sequences of intima-media thickness were selected for reading, and poor quality outlier frames were removed from the analysis when required.
For the dal-Plaque-2 population, mixed regression models for repeated measures analysis were tested in SAS software. The dal-Plaque-2 tested endpoint was the mean of IMT measures of common carotid arteries at the 6-month and the 12-month visits, using the baseline measure as covariate. […]

**Q.** Which “Change from baseline in carotid intima-media thickness, Mean” value (“Change from baseline” for short) (rs8061182, homozygotes for minor allele, M12) does the source give for `CCC(CC)CC1(C(=O)Nc2ccccc2SC(=O)C(C)C)CCCCC1` [dalcetrapib, thioisobutyric acid S-(2-{[1-(2-ethyl-butyl)-cyclohexanecarbonyl]-amino}-phenyl) ester] here?
**A.** −0.001 mm

**Q.** And the “Change from baseline” value (rs11647778, heterozygotes, M06)?
**A.** −0.002 mm

**Q.** What about the “Change from baseline” value (rs11647778, heterozygotes, M12) of the same compound?
**A.** 0.001 mm

**Q.** What about the “Change from baseline” value (rs11647778, homozygotes for major allele, M06) of the same compound?
**A.** 0.011 mm

**Q.** And the “Change from baseline” value (rs11647778, homozygotes for major allele, M12)?
**A.** 0.008 mm

**Q.** And the “Change from baseline” value (rs11647778, homozygotes for minor allele, M06)?
**A.** −0.013 mm

**Q.** What about the “Change from baseline” value (rs11647778, homozygotes for minor allele, M12) of the same compound?
**A.** −0.026 mm

**Q.** And the “Change from baseline” value (rs11647828, heterozygotes, M06)?
**A.** −0.002 mm

**Q.** What about the “Change from baseline” value (rs11647828, heterozygotes, M12) of the same compound?
**A.** −0.003 mm

**Q.** And the “Change from baseline” value (rs11647828, homozygotes for major allele, M06)?
**A.** 0.011 mm

**Q.** What about the “Change from baseline” value (rs11647828, homozygotes for major allele, M12) of the same compound?
**A.** 0.009 mm

**Q.** And the “Change from baseline” value (rs11647828, homozygotes for minor allele, M06)?
**A.** −0.018 mm

**Q.** And the “Change from baseline” value (rs11647828, homozygotes for minor allele, M12)?
**A.** −0.020 mm

**Q.** And the “Change from baseline” value (rs12595857, heterozygotes, M06)?
**A.** −0.003 mm

**Q.** And the “Change from baseline” value (rs12595857, heterozygotes, M12)?
**A.** −0.002 mm

**Q.** And the “Change from baseline” value (rs12595857, homozygotes for major allele, M06)?
**A.** 0.011 mm

**Q.** And the “Change from baseline” value (rs12595857, homozygotes for major allele, M12)?
**A.** 0.010 mm

**Q.** What about the “Change from baseline” value (rs12595857, homozygotes for minor allele, M06) of the same compound?
**A.** −0.008 mm

**Q.** And the “Change from baseline” value (rs12595857, homozygotes for minor allele, M12)?
**A.** −0.018 mm

**Q.** And the “Change from baseline” value (rs12599911, heterozygotes, M06)?
**A.** −0.003 mm

**Q.** And the “Change from baseline” value (rs12599911, heterozygotes, M12)?
**A.** −0.002 mm

**Q.** And the “Change from baseline” value (rs12599911, homozygotes for major allele, M06)?
**A.** 0.011 mm

**Q.** And the “Change from baseline” value (rs12599911, homozygotes for major allele, M12)?
**A.** 0.010 mm

**Q.** What about the “Change from baseline” value (rs12599911, homozygotes for minor allele, M06) of the same compound?
**A.** −0.008 mm

**Q.** And the “Change from baseline” value (rs12599911, homozygotes for minor allele, M12)?
**A.** −0.019 mm

**Q.** And the “Change from baseline” value (rs12920508, heterozygotes, M06)?
**A.** −0.003 mm

**Q.** And the “Change from baseline” value (rs12920508, heterozygotes, M12)?
**A.** −0.001 mm

**Q.** And the “Change from baseline” value (rs12920508, homozygotes for major allele, M06)?
**A.** 0.006 mm

**Q.** What about the “Change from baseline” value (rs12920508, homozygotes for major allele, M12) of the same compound?
**A.** 0.005 mm

**Q.** What about the “Change from baseline” value (rs12920508, homozygotes for minor allele, M06) of the same compound?
**A.** −0.005 mm

**Q.** And the “Change from baseline” value (rs12920508, homozygotes for minor allele, M12)?
**A.** −0.021 mm

**Q.** What about the “Change from baseline” value (rs12935810, heterozygotes, M06) of the same compound?
**A.** −0.003 mm

**Q.** And the “Change from baseline” value (rs12935810, heterozygotes, M12)?
**A.** −0.001 mm

**Q.** What about the “Change from baseline” value (rs12935810, homozygotes for major allele, M06) of the same compound?
**A.** −0.006 mm

**Q.** And the “Change from baseline” value (rs12935810, homozygotes for major allele, M12)?
**A.** −0.007 mm

**Q.** What about the “Change from baseline” value (rs12935810, homozygotes for minor allele, M06) of the same compound?
**A.** 0.021 mm

**Q.** And the “Change from baseline” value (rs12935810, homozygotes for minor allele, M12)?
**A.** 0.010 mm

**Q.** And the “Change from baseline” value (rs13337675, heterozygotes, M06)?
**A.** 0.002 mm

**Q.** What about the “Change from baseline” value (rs13337675, heterozygotes, M12) of the same compound?
**A.** 0.005 mm

**Q.** And the “Change from baseline” value (rs13337675, homozygotes for minor allele, M06)?
**A.** 0.016 mm

**Q.** What about the “Change from baseline” value (rs13337675, homozygotes for minor allele, M12) of the same compound?
**A.** −0.011 mm

**Q.** And the “Change from baseline” value (rs17136707, heterozygotes, M06)?
**A.** −0.006 mm

**Q.** What about the “Change from baseline” value (rs17136707, heterozygotes, M12) of the same compound?
**A.** −0.004 mm

**Q.** And the “Change from baseline” value (rs17136707, homozygotes for minor allele, M06)?
**A.** −0.015 mm

**Q.** And the “Change from baseline” value (rs17136707, homozygotes for minor allele, M12)?
**A.** −0.008 mm

**Q.** What about the “Change from baseline” value (rs74702385, heterozygotes, M06) of the same compound?
**A.** −0.006 mm

**Q.** And the “Change from baseline” value (rs74702385, heterozygotes, M12)?
**A.** −0.002 mm

**Q.** What about the “Change from baseline” value (rs74702385, homozygotes for minor allele, M06) of the same compound?
**A.** −0.015 mm

**Q.** And the “Change from baseline” value (rs74702385, homozygotes for minor allele, M12)?
**A.** −0.008 mm

**Q.** What about the “Change from baseline” value (rs111590482, heterozygotes, M06) of the same compound?
**A.** −0.006 mm

**Q.** And the “Change from baseline” value (rs111590482, heterozygotes, M12)?
**A.** −0.002 mm

**Q.** And the “Change from baseline” value (rs111590482, homozygotes for minor allele, M06)?
**A.** −0.015 mm

**Q.** And the “Change from baseline” value (rs111590482, homozygotes for minor allele, M12)?
**A.** −0.008 mm
